Results published in patent US10006009B2, “Codon-optimized gene for mutated shrimp luciferase and method for use thereof” (JNC CORPORATION, priority 2013, dated 2018).
“Also recorded” adds a separate entry of the source.

Legend:
Format in all cases: biochemical
purified nanoKAZ = biological target: T1, purified nanoKAZ (Oplophorus gracilirostris, UniProt Q9GV45, A31E/A60N/A81I/F95D/I117V/K70R/L54V/L99Q/M102K/N193R/P142E/Q151K/Q38R/Q45L/V71I/Y165I); assay: Emission spectra by purified nanoKAZ using coelenterazine analogues; conditions: purified nanoKAZ 3 μg, substrate 5 μg, 22-25° C.
T1 construct: histidine tag (6 His) (N, cleaved yes); ZZ domain (N, cleaved yes); made in house; host or cells: Escherichia coli BL21
T1 sequence (Q9GV45 other isoform, or with tags, fused parts or gaps with the stated changes): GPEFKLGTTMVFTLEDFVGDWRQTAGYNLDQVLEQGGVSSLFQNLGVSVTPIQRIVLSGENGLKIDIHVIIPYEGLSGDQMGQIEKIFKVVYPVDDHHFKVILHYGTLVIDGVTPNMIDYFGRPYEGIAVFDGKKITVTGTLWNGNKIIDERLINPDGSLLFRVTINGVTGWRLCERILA
Protocol: The luminescence reaction was started by addition of a solution of substrate coelenterazine (5 μg/5 μL) in ethanol to a solution of nanoKAZ (3 μg) in 30 mM Tris-HCl (pH 7.6) containing 500 μl of 10 mM EDTA. The luminescence spectra were measured in a quartz cell with an optical path length of 10 mm, with a fluorescence spectrophotometer (manufactured by JASCO Corp., FP-6500) with the excitation light source turned off to correct for the spectra. The measurement conditions used were as follows: band width: 20 nm, response: 0.5 second, scan speed: 2000 nm/min at 22-25° C. The maximum intensity of luminescence (λmax, nm) and half bandwidth (nm) were determined from the luminescence spectra measured, which are summarized in TABLE 8.

[1] = biological target: T2, purified codon-optimized nanoKAZ domain protein (Oplophorus gracilirostris, UniProt Q9GV45, A31E/A60N/A81I/F95D/I117V/K70R/L54V/L99Q/M102K/N193R/P142E/Q151K/Q38R/Q45L/V71I/Y165I); assay: Substrate specificity of purified nanoKAZ; conditions: purified nanoKAZ 0.03 μg, 1 μg substrate, coelenterazine = 1.0
T2 construct: histidine tag (6 His) (N, cleaved yes); ZZ domain (N, cleaved yes); made in house; host or cells: Escherichia coli BL21
T2 sequence (Q9GV45 other isoform, or with tags, fused parts or gaps with the stated changes): as above
Protocol: The luminescence reaction was started by addition of 5 μl (0.03 μg) of the purified enzyme solution obtained in EXAMPLE 7 to 100 μl of 50 mM Tris-HCl (pH 7.6)-10 mM EDTA (Wako Pure Chemical Industries, Ltd.) containing 1 μg of coelenterazine (manufactured by JNC) or its analogues. The luminescence activity was measured with a luminometer (manufactured by Atto Co.: AB2200) for 60 seconds. The maximum intensity of luminescence (Imax) and the level integrated for 60 seconds were represented as relative light units (rlu).
The luminescence activity of the purified codon-optimized nanoKAZ domain was measured in accordance with the method described in EXAMPLE 8. […] The results obtained using the purified codon-optimized nanoKAZ as the enzyme solution are in good agreement with the results found by using the culture cell solution as the enzyme solution.

[2] = biological target: T3, codon-optimized nanoKAZ domain protein (Oplophorus gracilirostris, UniProt Q9GV45, A31E/A60N/A81I/F95D/I117V/K70R/L54V/L99Q/M102K/N193R/P142E/Q151K/Q38R/Q45L/V71I/Y165I); assay: Substrate specificity and luminescence pattern of nanoKAZ secreted into culture medium; conditions: for luminescence pattern: FIG. 4; for Relative luminescence activity integrated (1 min) / Relative maximum luminescence intensity (Imax): culture medium with secreted nanoKAZ as enzyme, coelenterazine = 1.0
T3 construct: expressed in transfected cells; host or cells: CHO-K1, HeLa or COS-1 cells transfected with pcDNA3-nanoKAZ or pcDNA3-GLsp-nanoKAZ
T3 sequence (Q9GV45 28-196 with tags or gaps with the stated changes limits assumed): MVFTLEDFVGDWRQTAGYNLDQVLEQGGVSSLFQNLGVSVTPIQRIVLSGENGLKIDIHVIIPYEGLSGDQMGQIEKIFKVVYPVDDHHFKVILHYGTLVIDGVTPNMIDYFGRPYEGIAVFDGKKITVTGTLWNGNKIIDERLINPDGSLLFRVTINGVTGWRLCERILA
Protocol: The luminescence reaction was started by addition of 5 μL of the enzyme solution for assay obtained in EXAMPLE 3 to 100 μL of 50 mM Tris-HCl (pH 7.6)-10 mM EDTA (Wako Pure Chemical Industries, Ltd.) containing 0.5 μg of coelenterazine (manufactured by JNC Corp.). The luminescence activity was measured for 60 seconds with a luminometer (manufactured by Atto Co.: AB2200). The maximum intensity of luminescence (Imax) and the luminescence activity integrated for 60 seconds were represented as relative light units (rlu). On the other hand, the luminescence activity of firefly luciferase was used as an internal standard to confirm the efficiency of transfection. Five microliters of the enzyme solution for assay obtained in EXAMPLE 3 was added to 100 μL of the enzyme assay solution (manufactured by Promega Corp.) to start the luminescence reaction. The luminescence activity was measured with a luminometer (manufactured by Atto Co.: AB2200) by integration of luminescence for 10 seconds, which was shown as relative light units (rlu). […] While the transfection efficiencies vary in depending upon cell types, the transfection efficiencies of pcDNA3-nanoKAZ and pcDNA3-GLsp-nanoKAZ are almost the same. The results obtained by measuring the luminescence activity of CHO-K1 cells, HeLa cells and COS-1 cells in culture medium and cells are shown in TABLE 4. Evidently, pcDNA3-nanoKAZ without a signal peptide sequence for secretion was secreted comparably or more efficiently than pcDNA3-GLsp-nanoKAZ.
Coelenterazine analogues used in the substrate specificity experiments were synthesized by the methods described in the respective papers. More specifically, bis-coelenterazine, furimazine and C2-coelenterazine analogue were synthesized by the methods described in Nakamura et al. (1997) Tetrahedron Lett. 38:6405-6406, Hall et al. (2012) ACS Chem. Biol. […] and Inouye et al. (2010) Anal. Biochem. 407: 247-252, respectively. Using as an enzyme solution for coelenterazine or its analogues the culture medium, into which nanoKAZ was secreted as described in EXAMPLE 4, the luminescence activity was measured. Among coelenterazine analogues, the relative maximum intensity of luminescence for h-, bis-, 3me- and 3meo-coelenterazines was at least 10-fold higher and the relative luminescence activity integrated for 1 minute of h- and bis-coelenterazines was at least 10-fold higher, than the others. These luminescence patterns are illustrated in FIG. 4.

Compound	Half bandwidth FWHM (purified nanoKAZ)	Maximum wavelength λmax (purified nanoKAZ)	Maximum luminescence intensity (Imax) [1]	Relative luminescence activity integrated (1 min) [1]	luminescence pattern [2]	Relative luminescence activity integrated (1 min) [2]	Relative maximum luminescence intensity (Imax) [2]	activity relative to furimazine ([2]; higher than that of furimazine)
O=c1c(Cc2cccc(O)c2)nc2c(Cc3ccccc3)[nH]c(-c3ccc(O)cc3)cn1-2 [3iso-Coelenterazine]	75 nm	460 nm	1.1	0.9	did not show the rapid-decay luminescence patterns	1.4	1.5	
Cc1cccc(Cc2nc3c(Cc4ccccc4)[nH]c(-c4ccc(O)cc4)cn-3c2=O)c1 [3me-Coelenterazine]	73 nm	458 nm	10.3	4.2		7.9	11.5	
COc1cccc(Cc2nc3c(Cc4ccccc4)[nH]c(-c4ccc(O)cc4)cn-3c2=O)c1 [3meo-Coelenterazine]	71 nm	458 nm	11.1	6.6		8.2	11.6	
Oc1ccc(Cc2nc3c(Cc4ccccc4)nc(-c4ccc(O)cc4)cn3c2O)cc1 [Coelenterazine (CTZ), Coelenterazine]	73 nm	457 nm	1.0	1.0		1.0	1.0	
O=c1c(Cc2ccco2)nc2c(Cc3ccccc3)[nH]c(-c3ccccc3)cn1-2 [Furimazine]	73 nm	452 nm	6.8	5.5	did not show the rapid-decay luminescence patterns	5.3	4.8	
O=c1c(Cc2ccc(C(F)(F)F)cc2)nc2c(Cc3ccccc3)[nH]c(-c3ccc(O)cc3)cn1-2 [cf3-Coelenterazine]	71 nm	454 nm	4.7	1.4		2.4	5.2	
Oc1ccc(-c2cn3c(O)c(Cc4ccccc4)nc3c(Cc3ccccc3)n2)cc1 [h-Coelenterazine]	71 nm	455 nm	19.7	12.5		11.1	17.1	
Cc1ccc(Cc2nc3c(Cc4ccccc4)[nH]c(-c4ccc(O)cc4)cn-3c2=O)cc1 [me-Coelenterazine]	75 nm	460 nm	4.2	1.3		3.0	5.2	
COc1ccc(Cc2nc3c(Cc4ccccc4)[nH]c(-c4ccc(O)cc4)cn-3c2=O)cc1 [meo-Coelenterazine]	73 nm	458 nm	7.7	3.4		6.3	8.9	
bis-Coelenterazine	73 nm	453 nm	13.5	10.1	did not show the rapid-decay luminescence patterns; also recorded: continuous emission without decay of luminescence	11.5	10.8	at least 2 fold
et-Coelenterazine	75 nm	458 nm	2.4	0.5		2.8	4.4	
i-Coelenterazine	73 nm	457 nm	2.9	0.8		2.0	3.3	
n-Coelenterazine	71 nm	454 nm	4.1	1.2		3.3	4.9	
αmeh-Coelenterazine	73 nm	462 nm	0.1	0.1		0.1	0.1	
